We go through 25 compounds from patent US11634396B2 (priority 2021, dated 2023).

Bounds are passed on as bounds.

One assay deals with human mOR (Homo sapiens (Human), UniProt P35372). Put plainly: cell-based.
Chain of human mOR (P35372 whole entry): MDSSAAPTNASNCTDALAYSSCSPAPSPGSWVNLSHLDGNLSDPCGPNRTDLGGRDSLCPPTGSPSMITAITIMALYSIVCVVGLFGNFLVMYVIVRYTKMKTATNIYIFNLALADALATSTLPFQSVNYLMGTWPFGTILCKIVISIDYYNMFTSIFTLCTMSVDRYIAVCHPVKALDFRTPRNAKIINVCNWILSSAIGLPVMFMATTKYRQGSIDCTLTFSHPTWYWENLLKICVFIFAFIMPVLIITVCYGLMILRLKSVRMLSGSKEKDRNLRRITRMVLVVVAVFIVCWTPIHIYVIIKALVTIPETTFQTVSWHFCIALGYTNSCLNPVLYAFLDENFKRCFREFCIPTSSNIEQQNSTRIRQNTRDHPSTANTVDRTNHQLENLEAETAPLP
Conditions: not given
The procedure: CHO Tag-lite human mOR stable cell line from Cisbio (NCBI accession number: NM_000914.3, Bedford, Mass.) were seeded and grown to approximately 80% confluence in Ham F-12 with 10% FBS, 50 U/ml penicillin, 50 μg/ml streptomycin, 2 mM Hepes, and 1 mg/ml geneticin (Invitrogen, Carlsbad, Calif.). Cells were then harvested using accutase (Corning. Coming, N.Y.), centrifuged at 1300 RPM for 5 min, and plated at 5000 cells per 5 μL per well in a 5× dilution of stimulation buffer consisting of the HTRF cAMP Gi kit, water and IBMX at 0.5 mM (Cisbio, Bedford, Mass.) in white HTRF low volume 384 well plates (Cisbio, Bedford, Mass.). Plates were then incubated at 37° C. in 5% CO2 for 10 minutes. For the agonist assay, forskolin was added to a final concentration of 4 μM. […] Test compounds were dissolved in DMSO and water, and then serially diluted to working concentrations such that the concentration of DMSO was less than 0.1%. Diluted test compounds were added at 2.5 μL per well, and plates were incubated at 37° C., and 5% CO2 for 15 minutes, and then at room temperature for 15 minutes. Next 5 μl/well of cAMP Eu-cryptate and 5 μl/well of anti-cAMP-d2 (both diluted 1:20 in lysis buffer) were added, and plates were incubated at room temperature for 1 hour. Following incubation, plates were read in a Synergy Neo2 multi-mode reader (Biotek, Winooski, Vt.). […] For the agonist assay, data was normalized using the maximal DAMGO response. Measurements were performed in triplicate and the dose response was fit using nonlinear regression.
As for `CNC(=O)c1ccc(C[C@@H](CNC(=O)CC(c2cccnc2)C2(C(F)(F)F)CC2)N(C)C)c(Cl)c1F` (stereo in doubt) [Compound 109, 3-chloro-4-((S)-2-(dimethylamino)-3-((S)-3-(pyridin-3-yl)-3-(1-(trifluoromethyl)cyclopropyl)propanamido)propyl)-2-fluoro-N-methylbenzamide], the IC50 is less than 300 nM.
On to `CNC(=O)c1ccc(C[C@@H](CNC(=O)CC(c2cccnc2)C2(C(F)(F)F)CC2)N(C)C)c(C)c1F` (stereo in doubt) [Compound 124, 4-((S)-2-(dimethylamino)-3-((S)-3-(pyridin-3-yl)-3-(1-(trifluoromethyl)cyclopropyl)propanamido)propyl)-2-fluoro-N,3-dimethylbenzamide], for which the IC50 is greater than 3000 nM.
As to `CNC(=O)c1ccc(C[C@@H](CNC(=O)CC(c2ccncc2)C2(C(F)(F)F)CC2)N(C)C)c(C)c1` (stereo in doubt) [Compound 130, 4-((S)-2-(dimethylamino)-3-((S)-3-(pyridin-4-yl)-3-(1-(trifluoromethyl)cyclopropyl)propanamido)propyl)-N,3-dimethylbenzamide], the IC50 was less than 300 nM.
With `Cc1ncc([C@@H](CC(=O)NC[C@H](Cc2ccc(C(N)=O)c(F)c2F)N(C)C)C2(C(F)(F)F)CC2)s1` [Compound 1, 4-((S)-2-(dimethylamino)-3-((S)-3-(2-methylthiazol-5-yl)-3-(1-(trifluoromethyl)cyclopropyl)propanamido)propyl)-2,3-difluorobenzamide], the IC50 was less than 300 nM.
In the case of `Cc1ncc([C@@H](CC(=O)NC[C@H](Cc2ccc(C(N)=O)c(F)c2F)N(C)C)C2(C(F)(F)F)CC2)cn1` [Compound 3, 4-((S)-2-(dimethylamino)-3-((R)-3-(2-methylpyrimidin-5-yl)-3-(1-(trifluoromethyl)cyclopropyl)propanamido)propyl)-2,3-difluorobenzamide], the IC50 is less than 300 nM.
With `Cc1ccc([C@@H](CC(=O)NC[C@H](Cc2ccc(C(N)=O)c(F)c2F)N(C)C)C2(C(F)(F)F)CC2)cn1` [Compound 4, 4-((S)-2-(dimethylamino)-3-((R)-3-(6-methylpyridin-3-yl)-3-(1-(trifluoromethyl)cyclopropyl)propanamido)propyl)-2,3-difluorobenzamide], the IC50 is less than 300 nM.
As to `CN(C)[C@H](CNC(=O)C[C@@H](c1ncc(Cl)cn1)C1(C(F)(F)F)CC1)Cc1cc(F)c(C(N)=O)cc1F` [Compound 5, 4-[(2S)-3-[(3R)-3-(5-chloropyrimidin-2-yl)-3-[1-(trifluoromethyl)cyclopropyl]propanamido]-2-(dimethylamino)propyl]-2,5-difluorobenzamide], the IC50 was 300 to 3000 nM.
`Cc1ncc([C@@H](CC(=O)NC[C@H](Cc2ccc(C(N)=O)c(F)c2Cl)N(C)C)C2(C(F)(F)F)CC2)s1` [Compound 16, 3-chloro-4-[(2S)-2-(dimethylamino)-3-[(3S)-3-(2-methyl-1,3-thiazol-5-yl)-3-[1-(trifluoromethyl)cyclopropyl]propanamido]propyl]-2-fluorobenzamide]: the IC50 was less than 300 nM.
In the case of `CN(C)[C@H](CNC(=O)CC(c1ccncc1)C1(C(F)(F)F)CC1)Cc1ccc(C(N)=O)c(F)c1Cl` (stereo partly drawn) [Compound 19, 3-chloro-4-[(2S)-2-(dimethylamino)-3-[3-(pyridin-4-yl)-3-[1-(trifluoromethyl)cyclopropyl]propanamido]propyl]-2-fluorobenzamide], the IC50 is less than 300 nM.
For `CN(C)[C@H](CNC(=O)CC(c1ccncc1)C1(C(F)(F)F)CC1)Cc1ccc(C(N)=O)cc1Cl` (stereo partly drawn) [Compound 26, 3-chloro-4-[(2S)-2-(dimethylamino)-3-[3-(pyridin-4-yl)-3-[1-(trifluoromethyl)cyclopropyl]propanamido]propyl]benzamide], the IC50 was less than 300 nM.
Turning to `CN(C)[C@H](CNC(=O)CC(c1ncccn1)C1(C(F)(F)F)CC1)Cc1ccc(C(N)=O)cc1Cl` (stereo partly drawn) [Compound 27, 3-chloro-4-((2S)-2-(dimethylamino)-3-(3-(pyrimidin-2-yl)-3-(1-(trifluoromethyl)cyclopropyl)propanamido)propyl)benzamide], the IC50 is less than 300 nM.
With `CN(C)c1ncc(C(CC(=O)NC[C@H](Cc2ccc(C(N)=O)cc2Cl)N(C)C)C2(C(F)(F)F)CC2)cn1` (stereo partly drawn) [Compound 29, 3-chloro-4-[(2S)-2-(dimethylamino)-3-{3-[2-(dimethylamino)pyrimidin-5-yl]-3-[1-(trifluoromethyl)cyclopropyl]propanamido}propyl]benzamide], the IC50 was less than 300 nM.
Still for that read-out and setting: for `CN(C)[C@H](CNC(=O)CC(c1cncnc1)C1(C(F)(F)F)CC1)Cc1ccc(C(N)=O)cc1Cl` (stereo partly drawn) [Compound 30, 3-chloro-4-[(2S)-2-(dimethylamino)-3-[3-(pyrimidin-5-yl)-3-[1-(trifluoromethyl)cyclopropyl]propanamido]propyl]benzamide] the value was less than 300 nM; for `CN(C)[C@H](CNC(=O)CC(c1ncc(Cl)cn1)C1(C(F)(F)F)CC1)Cc1ccc(C(N)=O)cc1Cl` (stereo partly drawn) [Compound 31, 3-chloro-4-[(2S)-3-[3-(5-chloropyrimidin-2-yl)-3-[1-(trifluoromethyl)cyclopropyl]propanamido]-2-(dimethylamino)propyl]benzamide], less than 300 nM; for `Cc1ncc([C@@H](CC(=O)NC[C@H](Cc2ccc(C(N)=O)c(F)c2C)N(C)C)C2CC2)cn1` [Compound 42, 4-((S)-3-((S)-3-cyclopropyl-3-(2-methylpyrimidin-S-yl)propanamido)-2-(dimethylamino)propyl)-2-fluoro-3-methylbenzamide], greater than 3000 nM.
Regarding `Cc1ncc([C@@H](CC(=O)NC[C@H](Cc2ccc(C(N)=O)c(F)c2C)N(C)C)C2(C(F)(F)F)CC2)s1` [Compound 43, 4-((S)-2-(dimethylamino)-3-((S)-3-(2-methylthiazol-5-yl)-3-(1-(trifluoromethyl)cyclopropyl)propanamido)propyl)-2-fluoro-3-methylbenzamide], the IC50 was less than 300 nM.
The same measure, in the same setting: for `Cc1ncc([C@@H](CC(=O)NC[C@H](Cc2ccc(C(N)=O)c(F)c2C)N(C)C)C2(C(F)(F)F)CC2)cn1` [Compound 44, 4-((S)-2-(dimethylamino)-3-((R)-3-(2-methylpyrimidin-5-yl)-3-(1-(trifluoromethyl)cyclopropyl)propanamido)propyl)-2-fluoro-3-methylbenzamide] the value was less than 300 nM; for `Cc1c(C[C@@H](CNC(=O)C[C@@H](c2cncc(F)c2)C(C)(C)C)N(C)C)ccc(C(N)=O)c1F` [Compound 45, 4-((S)-2-(dimethylamino)-3-((R)-3-(5-fluoropyridin-3-yl)-4,4-dimethylpentanamido)propyl)-2-fluoro-3-methylbenzamide], less than 300 nM.
For `Cc1ccc([C@@H](CC(=O)NC[C@H](Cc2ccc(C(N)=O)c(F)c2C)N(C)C)C2(C(F)(F)F)CC2)cn1` [Compound 46, 4-((S)-2-(dimethylamino)-3-((R)-3-(6-methylpyridin-3-yl)-3-(1-(trifluoromethyl)cyclopropyl)propanamido)propyl)-2-fluoro-3-methylbenzamide], the IC50 is less than 300 nM.
As to `Cc1ccc([C@@H](CC(=O)NC[C@H](Cc2cc(F)c(C(N)=O)c(F)c2)N(C)C)C2(C(F)(F)F)CC2)cn1` [Compound 47, 4-((S)-2-(dimethylamino)-3-((R)-3-(6-methylpyridin-3-yl)-3-(1-(trifluoromethyl)cyclopropyl)propanamido)propyl)-26-difluorobenzamide], the IC50 is less than 300 nM.
`Cc1ncc([C@@H](CC(=O)NC[C@H](Cc2cc(F)c(C(N)=O)c(F)c2)N(C)C)C2(C(F)(F)F)CC2)cn1` [Compound 48, 4-((S)-2-(dimethylamino)-3-((R)-3-(2-methylpyrimidin-5-yl)-3-(1-(trifluoromethyl)cyclopropyl)propanamido)propyl)-2,6-difluorobenzamide]: the IC50 was greater than 3000 nM.
In the case of `CN(C)[C@H](CNC(=O)CC(c1cccnc1)C1(C(F)(F)F)CC1)Cc1cc(F)c(C(N)=O)c(F)c1` (stereo partly drawn) [Compound 50, 4-[(2S)-2-(dimethylamino)-3-[3-(pyridin-3-yl)-3-[1-(trifluoromethyl)cyclopropyl]propanamido]propyl]-2,6-difluorobenzamide], the IC50 was greater than 3000 nM.
Still for that read-out and setting: for `CN(C)[C@H](CNC(=O)C[C@H](c1ccoc1)C1(C(F)(F)F)CC1)Cc1ccc(C(N)=O)c(F)c1` [Compound 51, 4-((S)-2-(dimethylamino)-3-((R)-3-(furan-3-yl)-3-(1-(trifluoromethyl)cyclopropyl)propanamido)propyl)-2-fluorobenzamide] the value was less than 300 nM.

The assay is the same for the next values; noted with them: CHO Tag-lite human mOR stable cell line; forskolin 4 μM and DAMGO at EC90; read-out: mOR cAMP Antagonist Assay IC50.
On to `CNC(=O)c1ccc(C[C@@H](CNC(=O)C[C@@H](c2ccncc2)C2(C(F)(F)F)CC2)N(C)C)c(Cl)c1F` (single isomer, unassigned) [Compound 111], for which the IC50 is less than 300 nM.
As to `CN(C)[C@H](CNC(=O)C[C@H](c1cncs1)C1(C(F)(F)F)CC1)Cc1ccc(C(N)=O)c(F)c1F` [Compound 2, 4-((S)-2-(dimethylamino)-3-((S)-3-(thiazol-5-yl)-3-(1-(trifluoromethyl)cyclopropyl)propanamido)propyl)-2,3-difluorobenzamide], the IC50 was less than 300 nM.
